Results on 14 molecules are retold here after patent US20110251247A1, “SUBSTITUTED ISOXAZOLINE DERIVATIVES” (PFIZER INC., priority 2010, published 2011).

Format in all cases: in vivo
Assay [1] has as its system Flea (Ctenocephalides felis). Description: Flea (Ctenocephalides felis) Membrane Feed Assay-Adult. The settings on record: adult fleas fed on treated citrated bovine blood for approximately 2 hours; knockdown and/or death at approximately 2 and 24 hours. The procedure: Flea (Ctenocephalides felis) Membrane Feed Assay-Adult
Formula (1) compounds were dissolved in DMSO and aliquots were added to citrated bovine blood in a membrane covered Petri dish pre-warmed to 37° C. Feeding tubes containing approximately 30-35 adult fleas were placed onto the Petri dishes. The fleas were allowed to feed for approximately 2 hours. […] Endpoint data were recorded as an efficacious dose 80% (ED^80) in μg/mL.

Assay [2] relates to Hard Tick Larvae (Rhipicephalus sanquineus). Description: Hard Tick Larvae (Rhipicephalus sanquineus) Whole Organism Contact Assay. The settings on record: tick larvae in coated vials; knockdown examined at approximately 24 and 48 hours. The protocol: Hard Tick Larvae (Rhipicephalus sanquineus) Whole Organism Contact Assay
Formula (1) compounds were dissolved in isopropyl alcohol (IPA) and aliquots were added to vials placed on a roller for at least 2 hours to allow the IPA to evaporate. IPA alone was used as a negative control and fipronil was used as a positive control. Approximately 50-200 tick larvae were added to the vials using a swab and the vials were closed. At approximately 24 and 48 hours, the vials were examined and knockdown was recorded as active. Vials showing knockdown were examined for tick paralysis and/or death at approximately 48 hrs. Endpoint data can be recorded as an effective dose 100% (ED^100) and/or a lethal dose 100% (LD^100) in μg/cm^2.

Assay [3] has as its system Horn Fly (Haematobia irritans). Description: Horn Fly (Haematobia irritans) Feed Assay. The settings on record: horn flies fed on treated citrated bovine blood; knockdown and mortality at approximately 2 and 24 hours. The protocol: Horn Fly (Haematobia irritans) Feed Assay
Formula (1) compounds were dissolved in DMSO and aliquots were added to citrated bovine blood in a membrane covered Petri dish. Approximately ten horn flies were placed onto each Petri dish and covered. The flies were allowed to feed on the treated blood cell. Flies were held at approximately 80° F. with a minimum of approximately 50% relative humidity. Flies were examined for knockdown and mortality at approximately 2 and 24 hours. Endpoint data were recorded as a lethal dose 90% (LD^90) in μg/mL.

The structures appear in SMILES notation.

Consider `O=C(NCc1cc(C2=NOC(c3cc(Cl)c(F)c(Cl)c3)(C(F)(F)F)C2)ccc1F)C1CC1` (stereo not shown) [Example 12, N-{5-[5-(3,5-dichloro-4-fluorophenyl)-5-(trifluoromethyl)-4,5-dihydroisoxazol-3-yl]-2-fluorobenzyl}cyclopropanecarboxamide], for which the “ED^80 (efficacious dose 80%)” value in assay [1] came out at 3 µg/mL.

In the case of `O=C(CC(=O)NCC1CC1)NCc1cc(C2=NOC(c3cc(Cl)c(Cl)c(Cl)c3)(C(F)(F)F)C2)ccc1F` (stereo not shown) [Example 2, N-Cyclopropylmethyl-N′-{2-fluoro-5-[5-(3,4,5-trichloro-phenyl)-5-trifluoromethyl-4,5-dihydro-isoxazol-3-yl]-benzyl}-malonamide], the “ED^100 (effective dose 100%)” value in assay [2] is recorded as 10.0 μg/cm^2.

`CC(=O)NCc1cc(C2=NOC(c3cc(Cl)c(F)c(Cl)c3)(C(F)(F)F)C2)ccc1Cl` (stereo not shown) [Example 17, N-{2-chloro-5-[5-(3,5-dichloro-4-fluorophenyl)-5-(trifluoromethyl)-4,5-dihydroisoxazol-3-yl]benzyl}acetamide]: the “LD^90 (lethal dose 90%)” value in assay [3] was 1 µg/mL.

As for `O=C(NCc1cc(C2=NOC(c3cc(Cl)c(F)c(Cl)c3)(C(F)(F)F)C2)ccc1F)C1CC(F)(F)C1` (stereo not shown) [Example 13, N-{5-[5-(3,5-dichloro-4-fluorophenyl)-5-(trifluoromethyl)-4,5-dihydroisoxazol-3-yl]-2-fluorobenzyl}-3,3-difluorocyclobutanecarboxamide], the “ED^80 (efficacious dose 80%)” value in assay [1] stood at 3 µg/mL.

On to `CCNC(=O)CC(=O)NCc1cc(C2=NOC(c3cc(Cl)c(Cl)c(Cl)c3)(C(F)(F)F)C2)ccc1F` (stereo not shown) [Example 1, N-ethyl-N′-{2-fluoro-5-[5-(3,4,5-trichloro-phenyl)-5-trifluoromethyl-4,5-dihydro-isoxazol-3-yl]-benzyl}-malonamide], for which the “ED^100 (effective dose 100%)” value in assay [2] was 10.0 μg/cm^2.

On to `O=C(NCc1cc(C2=NOC(c3cc(Cl)c(Cl)c(Cl)c3)(C(F)(F)F)C2)ccc1F)C1CCC1` (stereo not shown) [Example 6, N-{2-fluoro-5-[5-(3,4,5-trichlorophenyl)-5-(trifluoromethyl)-4,5-dihydroisoxazol-3-yl]benzyl}cyclobutanecarboxamide], for which the “LD^90 (lethal dose 90%)” value in assay [3] was determined as 3 µg/mL. In addition, the “ED^80 (efficacious dose 80%)” value in assay [1] is 10 µg/mL.

As to `O=C(CC1CC1)NCc1cc(C2=NOC(c3cc(Cl)c(Cl)c(Cl)c3)(C(F)(F)F)C2)ccc1F` (stereo not shown) [Example 8, 2-cyclopropyl-N-{2-fluoro-5-[5-(3,4,5-trichlorophenyl)-5-(trifluoromethyl)-4,5-dihydroisoxazol-3-yl]benzyl}acetamide], in assay [3], the “LD^90 (lethal dose 90%)” value was determined as 3 µg/mL.

On to `CC(=O)NCc1cc(C2=NOC(c3cc(Cl)c(Cl)c(Cl)c3)(C(F)(F)F)C2)ccc1F` (stereo not shown) [Example 3, N-{5-[5-(3,4,5-trichlorophenyl)-5-(trifluoromethyl)-4,5-dihydroisoxazol-3-yl]-2-fluorobenzyl}acetamide], for which the “LD^90 (lethal dose 90%)” value in assay [3] worked out at 10 µg/mL. Further, in assay [1], the “ED^80 (efficacious dose 80%)” value amounted to 3 µg/mL.

Regarding `CC(=O)NCc1cc(C2=NOC(c3cc(Cl)c(Cl)c(Cl)c3)(C(F)(F)F)C2)ccc1Br` (stereo not shown) [Example 18, N-(2-bromo-5-(5-(3,4,5-trichlorophenyl)-5-(trifluoromethyl)-4,5-dihydroisoxazol-3-yl)benzyl)acetamide], the “LD^90 (lethal dose 90%)” value in assay [3] was found to be 1 µg/mL. Also, in assay [1], the “ED^80 (efficacious dose 80%)” value amounted to 10 µg/mL.

For `O=C(NCc1cc(C2=NOC(c3cc(Cl)c(Cl)c(Cl)c3)(C(F)(F)F)C2)ccc1F)C1CC1` (stereo not shown) [Example 5, N-{2-fluoro-5-[5-(3,4,5-trichlorophenyl)-5-(trifluoromethyl)-4,5-dihydroisoxazol-3-yl]benzyl}cyclopropanecarboxamide], the “LD^90 (lethal dose 90%)” value in assay [3] is 1 µg/mL. In addition, in assay [1], the “ED^80 (efficacious dose 80%)” value is 3 µg/mL.

Turning to `CC(C)CC(=O)NCc1cc(C2=NOC(c3cc(Cl)c(Cl)c(Cl)c3)(C(F)(F)F)C2)ccc1F` (stereo not shown) [Example 9, N-{2-fluoro-5-[5-(3,4,5-trichlorophenyl)-5-(trifluoromethyl)-4,5-dihydroisoxazol-3-yl]benzyl}-3-methylbutanamide], in assay [3], the “LD^90 (lethal dose 90%)” value stood at 3 µg/mL.

For `CC(C)C(=O)NCc1cc(C2=NOC(c3cc(Cl)c(Cl)c(Cl)c3)(C(F)(F)F)C2)ccc1F` (stereo not shown) [Example 4, N-{2-fluoro-5-[5-(3,4,5-trichlorophenyl)-5-(trifluoromethyl)-4,5-dihydroisoxazol-3-yl]benzyl}-2-methylpropanamide], the “LD^90 (lethal dose 90%)” value in assay [3] was determined as 1 µg/mL.

In the case of `CC(=O)NCc1cc(C2=NOC(c3cc(Cl)c(F)c(Cl)c3)(C(F)(F)F)C2)ccc1F` (stereo not shown) [Example 11, N-{5-[5-(3,5-dichloro-4-fluorophenyl)-5-(trifluoromethyl)-4,5-dihydroisoxazol-3-yl]-2-fluorobenzyl}acetamide], the “LD^90 (lethal dose 90%)” value in assay [3] worked out at 3 µg/mL.

Turning to `CCC(=O)NCc1cc(C2=NOC(c3cc(Cl)c(Cl)c(Cl)c3)(C(F)(F)F)C2)ccc1F` (stereo not shown) [Example 7, N-{2-fluoro-5-[5-(3,4,5-trichlorophenyl)-5-(trifluoromethyl)-4,5-dihydroisoxazol-3-yl]benzyl}propanamide], the “LD^90 (lethal dose 90%)” value in assay [3] came out at 1 µg/mL. In assay [1], the “ED^80 (efficacious dose 80%)” value is 10 µg/mL.
